In patent US20040024024A1, “Aromatic sulfone hydroxamates and their use as protease inhibitors” (priority 2001, published 2004):

Key:
Human recombinant MMP-2 = molecular target: T1, Human recombinant MMP-2 (Homo sapiens, UniProt P08253); experiment: In vitro MMP inhibition, Ki determination (fluorogenic substrate II); assay type: biochemical
T1 construct: made in house; host or cells: MMP-2-transfected p2AHT2 cells
T1 sequence (P08253 110-660): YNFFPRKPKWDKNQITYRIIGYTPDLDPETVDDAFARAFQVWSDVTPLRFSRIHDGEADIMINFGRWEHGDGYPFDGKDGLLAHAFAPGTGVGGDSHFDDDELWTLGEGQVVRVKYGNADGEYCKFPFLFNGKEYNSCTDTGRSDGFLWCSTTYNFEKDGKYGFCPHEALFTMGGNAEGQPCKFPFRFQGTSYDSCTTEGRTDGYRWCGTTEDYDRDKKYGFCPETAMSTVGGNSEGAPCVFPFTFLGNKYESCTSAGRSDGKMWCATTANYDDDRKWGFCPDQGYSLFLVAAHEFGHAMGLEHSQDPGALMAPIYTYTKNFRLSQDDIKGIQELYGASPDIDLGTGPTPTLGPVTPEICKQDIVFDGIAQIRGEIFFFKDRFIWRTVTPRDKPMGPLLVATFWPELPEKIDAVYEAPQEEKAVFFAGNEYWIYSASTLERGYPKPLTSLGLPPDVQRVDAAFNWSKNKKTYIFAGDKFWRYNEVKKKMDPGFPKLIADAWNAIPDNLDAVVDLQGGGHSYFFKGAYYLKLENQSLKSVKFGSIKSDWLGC
Procedure: Several hydroxamates and salts thereof were analyzed in in vitro assays to determine their ability to inhibit the MMP cleavage of peptide substrates. Inhibition (Ki) and IC50 constants were calculated from the assayed hydroxamate-MMP interactions.
Human recombinant MMP-1, MMP-2, MMP-9, MMP-13, and MMP-14 were used in this assay. All enzymes were prepared in Assignee's laboratories following usual laboratory procedures. Protocols for the preparation and use of these enzymes are available in the scientific literature. See, e.g., Enzyme Nomenclature (Academic Press, San Diego, Calif., 1992) (and the citations therein). See also, Frije et al., J. Biol. Chem., 26(24), 16766-73 (1994).
The MMP-2 proenzyme was purified by gelatin Sepharose chromatography from MMP-2-transfected p2AHT2 cells provided by Dr. Gregory Goldberg of Washington University (St. Louis, Mo.).
All MMPs were activated using 4-aminophenylmercuric acetate (“APMA”, Sigma Chemical, St. Louis, Mo.) or trypsin. MMP-9 also was activated using human recombinant MMP-3 (purified in Assignee's laboratory following standard cloning and purification techniques).
Two fluorogenic, methoxycoumarin-containing polypeptide substrates were used in the MMP inhibition assays:
MCA-ArgProLeuGlyLeuDpaAlaArgGluArgNH2 (II)
Here, “Dpa” is 3-(2,4-dinitrophenyl)-L-2,3-diaminopropionyl group, and “MCA” is 7-methoxycoumarin-4-yl acetyl. Substrate (I) was purchased from Baychem (Redwood City, Calif.), and substrate II was prepared Assignee's laboratory. Substrate I was used in the IC50 determination assays, while substrate II was used in the Ki determination assays. In the absence of MMP inhibitory activity, either substrate is cleaved at the Gly-Leu peptide bond. This cleavage separates the highly fluorogenic peptide from the 2,4-dinitrophenyl quencher, thus resulting in increase of fluorescent intensity.
The stock solutions of the assayed hydroxamates (or salts thereof) were prepared in 1% dimethyl sulfoxide (DMSO). These stock solutions were diluted in Buffer A (100 mM Tris-HCl, 100 mM NaCl, 10 mM CaCl2, 0.05% polyoxyethylene 23 lauryl ether, pH 7.5) to obtain solutions with different hydroxamate concentrations, i.e., assay solutions with different concentrations of the assayed MMP inhibitory compound. The experiment controls contained the same amount of Buffer A/DMSO as the assayed sample, but contained no hydroxamate (or salt thereof).
The assays from which the Ki determinations were made were performed as follows. The assayed hydroxamate samples were incubated in separate wells of untreated white polystyrene plates (Nunc Nalgene International, Rochester, N.Y.), and analyzed on a Tecan SpectraFlour Plus plate reader. The excitation wavelength was 330 nm, and the emission wavelength—420 nm. All samples (assayed hydroxamates and controls) were incubated in separate plate wells at room temperature for 1 hr in the presence of 4 μM of MMP substrate (II). In the absence of MMP inhibitory activity, substrate II was cleaved at the Gly-Leu bond resulting in an increase of relative fluorescence. Inhibition was observed as a reduced rate of this increase in relative fluorescence. The various hydroxamates were analyzed using a single low enzyme concentration with a single substrate concentration fixed at or below the Km. This protocol is a modification of method by Knight et al., FEBS Lett., 296(3), 263-266 (1992). Apparent inhibitory constants were determined by non-linear regression of reaction velocity as a function of inhibitor and enzyme concentration using Morrison's equation, as described by Kuzmic, Anal. Biochem. 286, 45-50 (2000). […] Since the substrate concentration was chosen to be at or below the Km, the apparent Ki's from this analysis were reported as Ki's without correction for the influence of substrate.

Human recombinant MMP-9 = molecular target: T2, Human recombinant MMP-9 (Homo sapiens, UniProt P14780); experiment: In vitro MMP inhibition, IC50 determination (fluorogenic substrate I); assay type: biochemical
T2 construct: made in house; host or cells: MMP-9-transfected HT1080 cells (spent media)
T2 sequence (P14780 107-707 limits assumed): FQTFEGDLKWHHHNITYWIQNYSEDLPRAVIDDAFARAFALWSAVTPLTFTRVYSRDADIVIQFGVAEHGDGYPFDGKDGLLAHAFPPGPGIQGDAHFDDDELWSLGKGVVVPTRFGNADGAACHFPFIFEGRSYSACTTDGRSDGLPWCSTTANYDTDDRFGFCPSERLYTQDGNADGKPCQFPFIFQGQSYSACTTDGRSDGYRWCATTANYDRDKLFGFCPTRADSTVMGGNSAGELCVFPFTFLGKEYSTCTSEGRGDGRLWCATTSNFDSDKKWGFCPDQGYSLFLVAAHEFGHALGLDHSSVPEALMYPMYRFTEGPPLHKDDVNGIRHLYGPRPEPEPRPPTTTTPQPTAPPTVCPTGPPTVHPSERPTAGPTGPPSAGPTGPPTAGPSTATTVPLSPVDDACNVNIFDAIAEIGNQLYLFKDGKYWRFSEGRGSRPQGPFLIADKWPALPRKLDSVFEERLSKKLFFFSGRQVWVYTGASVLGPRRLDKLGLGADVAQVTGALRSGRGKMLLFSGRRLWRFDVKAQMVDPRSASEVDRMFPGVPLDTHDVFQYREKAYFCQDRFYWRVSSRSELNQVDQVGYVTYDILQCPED
Procedure, shortened: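 Reduction in fluorescence (328 nm excitation, 415 nm emission) from cleavage of 4 μM quenched peptide substrate I, measured at room temperature against inhibitor concentration, gave IC50. Enzyme: trypsin- or APMA-activated MMP-9 purified from transfected HT1080 medium; buffer 100 mM Tris, 100 mM NaCl, 10 mM CaCl2, pH 7.5.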

SMILES	Ki (Human recombinant MMP-2; value in parenthesis) [nM]	IC50 (Human recombinant MMP-9; value outside parenthesis) [nM]	Ki (Human recombinant MMP-2; value in parentheses) [nM]	IC50 (Human recombinant MMP-9; value outside parentheses) [nM]
O=C(CCCOc1ccc(S(=O)(=O)C2(C(=O)NO)CCOCC2)cc1)Nc1ccc(OC(F)(F)F)cc1 [Example 228]	22.4	180	–	–
O=C(NO)C1(S(=O)(=O)c2ccc(OCCCc3ccnc(-c4ccccc4)c3)cc2)CCOCC1 [Example 197]	30.7	432	–	–
O=C(NO)C1(S(=O)(=O)c2ccc(OCCCc3cccc(Br)c3)cc2)CCOCC1 [Example 154]	33.9	111	–	–
O=C(NO)C1(S(=O)(=O)c2ccc(OCCCc3cc(-c4ccc(F)cc4F)cs3)cc2)CCOCC1 [Example 587]	–	–	125	1370
